# From patent US12559732B2, “Compositions and methods for producing human milk oligosaccharides” (NORTH CAROLINA STATE UNIVERSITY, priority 2020, dated 2026)
# What was measured:
# [1] = target: Hamamotoa (Sporobolomyces) singularis β-hexosyl-transferase (BHT), truncated variant rBHT(54-594)-HIS (residues 1-53 removed); MFα-rBht(54-594)-HIS SEQ ID NO: 50 (Hamamotoa singularis, UniProt Q564N5); assay: Kinetics of ONP-Glu cleavage by purified soluble rBHT(54-594)-HIS; format: biochemical; details: 0.08-10.4 mM ONP-Glu, 20, 30, 42 and 55° C.
# Description: (§1) K. pastoris Transformation and Expression. […] Expression and purification have been described previously.
# (§2) Kinetic parameters of secreted soluble rBHT variants.
# [2] = target: T1, Hamamotoa (Sporobolomyces) singularis β-hexosyl-transferase (BHT), truncated variant rBHT(23-594)-HIS (residues 1-22 removed); MFα-rBht(23-594)-HIS SEQ ID NO: 38 (Hamamotoa singularis, UniProt Q564N5); assay: Kinetics of ONP-Glu cleavage by purified soluble rBHT(23-594)-HIS; format: biochemical; details: 0.08-10.4 mM ONP-Glu, 20, 30, 42 and 55° C.
# T1 construct: codon-optimized gene
# Description: as §1, §2
# [3] = target: T2, Hamamotoa (Sporobolomyces) singularis β-hexosyl-transferase (BHT), truncated variant rBHT(57-594)-HIS (residues 1-56 removed); MFα-rBht(57-594)-HIS SEQ ID NO: 52 (Hamamotoa singularis, UniProt Q564N5); details: 0.08-10.4 mM ONP-Glu, 20, 30, 42 and 55° C.
# T2 sequence (Q564N5 57-594): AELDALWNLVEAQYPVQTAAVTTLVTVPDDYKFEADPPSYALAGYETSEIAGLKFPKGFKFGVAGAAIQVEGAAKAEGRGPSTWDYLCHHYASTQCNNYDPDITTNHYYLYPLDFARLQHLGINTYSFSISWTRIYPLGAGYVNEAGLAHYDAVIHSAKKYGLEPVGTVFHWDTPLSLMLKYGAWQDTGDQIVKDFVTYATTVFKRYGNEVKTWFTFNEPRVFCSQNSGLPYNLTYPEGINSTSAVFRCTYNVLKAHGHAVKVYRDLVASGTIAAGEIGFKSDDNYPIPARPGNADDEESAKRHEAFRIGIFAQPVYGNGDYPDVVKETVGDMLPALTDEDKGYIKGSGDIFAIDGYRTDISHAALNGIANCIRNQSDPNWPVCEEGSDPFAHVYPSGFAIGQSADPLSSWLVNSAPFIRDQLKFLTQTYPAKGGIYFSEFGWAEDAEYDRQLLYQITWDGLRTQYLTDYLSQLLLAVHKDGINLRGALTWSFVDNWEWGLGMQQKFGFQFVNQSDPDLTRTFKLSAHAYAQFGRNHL
# [4] = target: Hamamotoa (Sporobolomyces) singularis β-hexosyl-transferase (BHT), truncated variant rBHT(32-594)-HIS (residues 1-31 removed); MFα-rBht(32-594)-HIS SEQ ID NO: 48 (Hamamotoa singularis, UniProt Q564N5); assay: Kinetics of ONP-Glu cleavage by purified soluble rBHT(32-594)-HIS; format: biochemical; details: 0.08-10.4 mM ONP-Glu, 20, 30, 42 and 55° C.
# Description: as §1, §2
# [5] = system: Hamamotoa (Sporobolomyces) singularis β-hexosyl-transferase (BHT, EC 3.2.1.21), native; details: lactose concentrations above 20%; cited from earlier work
Structure (SMILES),Km (affinity for the substrate ONP-Glu) [1],"kcat (turnover activity, ONP-Glu) [1]",Km (affinity for the substrate ONP-Glu) [2],"kcat (turnover activity, ONP-Glu) [2]",Km (affinity for the substrate ONP-Glu) [3],"kcat (turnover activity, ONP-Glu) [3]",Km (affinity for the substrate ONP-Glu) [4],"kcat (turnover activity, ONP-Glu) [4]",inhibition by lactose [5]
O=[N+]([O-])c1ccccc1O[C@@H]1O[C@H](CO)[C@@H](O)[C@H](O)[C@H]1O [ONP-Glu],retain similar affinity for the substrate ONP-Glu (Km),retain similar affinity for the substrate ONP-Glu (Km) and turnover activity (kcat),retain similar affinity for the substrate ONP-Glu (Km),retain similar affinity for the substrate ONP-Glu (Km) and turnover activity (kcat),retain similar affinity for the substrate ONP-Glu (Km),retain similar affinity for the substrate ONP-Glu (Km) and turnover activity (kcat),retain similar affinity for the substrate ONP-Glu (Km),retain similar affinity for the substrate ONP-Glu (Km) and turnover activity (kcat),–
OC[C@H]1O[C@@H](O[C@H]2[C@H](O)[C@@H](O)C(O)O[C@@H]2CO)[C@H](O)[C@@H](O)[C@H]1O (stereo partly drawn) [lactose],–,–,–,–,–,–,–,–,does not appear to be inhibited by lactose concentrations above 20%
